Assay results from patent US20050054531A1, “N-(phosphonomethyl) glycine (glyphosate) salt, a preparation process thereof, a concentrate composition and a phytotoxic formulation comprising it, and a method to combat weeds in a crop with a formulation thereto” (priority 2003, published 2005).
Entries after “also recorded” stand apart in the source; their conditions may differ.

Key:
[1] = tested on: Aleppo grass, Bermuda grass, Blite, Wild buckwheat, Nutgrass; test: Field comparison of salt, trunk mixture and Rondo on renovation ground prior to cane plantation (Example 4); type: in vivo; details: scale (1) out of control to (10) excellent control
Description: APPLICATION: On renovation ground
TYPE OF TREATMENT: TOTAL (PRIOR TO CANE PLANTATION)
EXPERIMENTAL DESIGN: RANDOMIZED BLOCKS
VOLUME PER HECTARE: 120 liters

Bermuda grass [2] = test: Field observations on activity rate: control of Bermuda grass (Example 3); type: in vivo, Cynodon dactylon; design: key: beginning of the effect (BE); death of the plant (DP); without symptoms (WS); details: visual, 5,000 cm^3/ha (SQUADRON 24% 10,000)
Protocol: (§1) Products were applied on a plot with maize stubble, preparing it for sowing wheat, where most abundant weeds were Aleppo grass (Sorghum halepense), water grass, jungle rice (Echinochloa crusgalli, Echinochloa colonum), and Bermuda grass (Cynodon dactylon).
(§2) The assessment was performed visually on 3, 4, 5, 8, and 10 days after application for jungle rice, and Aleppo grass, and 4,7,10, and 14 days for Bermuda grass, where the obtained effects were recorded and identified as follows: beginning of the effect (BE), death of the plant (DP), and without symptoms (WS).

Apple, Red Delicious = test: Phytotoxicity to the fruit tree (Example 5); type: in vivo; details: apple culture; 4 l/ha
Protocol: Variety: Hybrid. Red Delicious.
Phenologic status: with fruits of 2 cm diameter.
(§3) Observations: Only one dose of each product was tested in three repetitions, on areas of 2 m×8 m=16 m^2.

Soya A-6443 = test: Phytotoxicity on the soy crop (Example 6); type: in vivo; details: 2,000 and 3,000 cm^2/ha; soy at R-4/5
Description: (§4) OBJECTIVE: The subject of the present assay comprises the assessment of different Glyphosate formulations on annual and perennial weeds in a resistant soy crop.
(§5) Crop data were as follows: • Species: Soya • Variety: A-6443 • See-planting time: Second. • Preceding crop: Wheat • Density of seeds planted: 33 grains/m^2 • Density of grown plants: 28 pl/m^2 • Space between furrows: 0.52 m. • Culture system: Direct seed-planting. • Phenologic status on application: R-4/5
(§6) The product was applied with a carbon dioxide (CO2) hand backpack, provided with four tips separated by 0.50 m each, with a plain fan-type 110 O2 pastille. Applied volume was of 110 1/ha, at a pressure of 45 lb/cm^2

Aleppo grass = test: Weed control in apple culture (Example 5): Aleppo grass; type: in vivo, Sorghum halepensis; details: 4 l/ha (1,440 g/ha 100% acid)
Protocol: as §3

Bermuda grass [3] = test: Weed control in apple culture (Example 5): Bermuda grass; type: in vivo, Cynodon dactylon; details: 4 l/ha (1,440 g/ha 100% acid)
Protocol: as §3

[4] = tested on: jungle rice and Aleppo grass; test: Field observations on activity rate: control of jungle rice and Aleppo grass (Example 3); type: in vivo; design: key: beginning of the effect (BE); death of the plant (DP); without symptoms (WS); details: visual, 5,000 cm^3/ha (SQUADRON 24% 10,000)
Protocol: as §1, §2

Sunchillo (White aster) = test: Weed control in apple culture (Example 5): Sunchillo; type: in vivo, Wedelia glauca; details: 4 l/ha (1,440 g/ha 100% acid)
Protocol: as §3

[5] = tested on: Blite, Pigweed, and Aleppo grass; test: Control of soy weeds (Example 6): Blite, Pigweed, and Aleppo grass; type: in vivo, Amaranthus quitensis, Chenopodium album, Sorghum halepense
Description: as §4, §5
(§7) Random blocks design was used, with four repetitions per treatment. The size of the parcels were: 4 m wide per 15 m long (60 m^2), totaling 240 m^2 per treatment.
as §6
(§8) The assessments were carried out visually by comparison with control non-applied parcels, and at 5, 10, 15, and 25 days after the application date en each case, where the intervals between each application from the beginning of the treatment were 5, 5, and 10 days, respectively.
(§9) Variance analysis (ANOVA) and Duncan Test were performed with the results obtained, in order to detect mean differences.

[6] = tested on: Bermuda grass and Nutgrass; test: Control of soy weeds (Example 6): Bermuda grass and Nutgrass; type: in vivo, Cynodon dactylon, Cyperus rotundus
Description: as §4, §5, §7, §6, §8, §9

[7] = stated in the formulation process; cited from earlier work
[8] = Glyphosate triazolamine salt 2,000 / Rondo 2,500 cm^2/ha
[9] = Glyphosate triazolamine salt 3,000 / Rondo 5,000 cm^2/ha

Compound: 1H-1,2,4-triazole-3-yl-amine N-(phosphonomethyl)-glycine salt [Glyphosate triazolamine salt]
- ASSAY OBSERVATIONS, control, 5 DAYS ([1]; 3 liters/ha): 4
- ASSAY OBSERVATIONS, control, 15 DAYS ([1]; 3 liters/ha): 7
- ASSAY OBSERVATIONS, control, 30 DAYS ([1]; 3 liters/ha): 9
- ASSAY OBSERVATIONS, control, 5 DAYS ([1]; 4 liters/ha): 4
- ASSAY OBSERVATIONS, control, 15 DAYS ([1]; 4 liters/ha): 7
- ASSAY OBSERVATIONS, control, 30 DAYS ([1]; 4 liters/ha): 10
- Control of Bermuda grass, 4 DAYS (Bermuda grass [2]; 4 days after application): BE
- Control of Bermuda grass, 7 DAYS (Bermuda grass [2]; 7 days after application): BE
- Control of Bermuda grass, 10 DAYS (Bermuda grass [2]; 10 days after application): DP
- Control of Bermuda grass, 14 DAYS (Bermuda grass [2]; 14 days after application): DP
- phytotoxicity to the fruit tree (Apple, Red Delicious): No phytotoxicity to the fruit tree was observed
- phytotoxicity on soy leaves / soy crops (Soya A-6443): showed phytotoxicity problems on soy leaves; also recorded: showed phytotoxicity over soy crops
- COUNT, averages of blocks, A (Aleppo grass) (Aleppo grass; 38 days after application): 65
- COUNT, averages of blocks, A (Aleppo grass) (Aleppo grass; 51 days after application): 85
- COUNT, averages of blocks, A (Aleppo grass) (Aleppo grass; 99 days after application): 95
- COUNT, averages of blocks, B (Bermuda grass) (Bermuda grass [3]; 38 days after application): 70
- COUNT, averages of blocks, B (Bermuda grass) (Bermuda grass [3]; 51 days after application): 80
- COUNT, averages of blocks, B (Bermuda grass) (Bermuda grass [3]; 99 days after application): 90
- Control of jungle rice and Aleppo grass, 3 DAYS ([4]; 3 days after application): BE
- Control of jungle rice and Aleppo grass, 4 DAYS ([4]; 4 days after application): BE
- Control of jungle rice and Aleppo grass, 5 DAYS ([4]; 5 days after application): DP
- Control of jungle rice and Aleppo grass, 8 DAYS ([4]; 8 days after application): DP
- Control of jungle rice and Aleppo grass, 10 DAYS ([4]; 10 days after application): DP
- COUNT, averages of blocks, C (Sunchillo) (Sunchillo (White aster); 38 days after application): 75
- COUNT, averages of blocks, C (Sunchillo) (Sunchillo (White aster); 51 days after application): 90
- COUNT, averages of blocks, C (Sunchillo) (Sunchillo (White aster); 99 days after application): 98
- Control % after 5 DAYS, data average by assessment date [5, 8]: 58.33%
- Control % after 10 DAYS, data average by assessment date [5, 8]: 100.00%
- Control % after 15 DAYS, data average by assessment date [5, 8]: 100.00%
- Control % after 25 DAYS, data average by assessment date [5, 8]: 100.00%
- Control % after 5 days, I [5, 8]: 60%
- Control % after 5 days, II [5, 8]: 55%
- Control % after 5 days, III [5, 8]: 60%
- Control % after 5 days, MEAN [5, 8]: 58.33%
- Control % after 10 days, I [5, 8]: 100%
- Control % after 10 days, II [5, 8]: 100%
- Control % after 10 days, III [5, 8]: 100%
- Control % after 10 days, MEAN [5, 8]: 100.00%
- Control % after 15 days, I [5, 8]: 100%
- Control % after 15 days, II [5, 8]: 100%
- Control % after 15 days, III [5, 8]: 100%
- Control % after 15 days, MEAN [5, 8]: 100.00%
- Control % after 5 DAYS, data average by assessment date [5, 9]: 95.00%
- Control % after 10 DAYS, data average by assessment date [5, 9]: 100.00%
- Control % after 15 DAYS, data average by assessment date [5, 9]: 100.00%
- Control % after 25 DAYS, data average by assessment date [5, 9]: 100.00%
- Control % after 5 days, I [5, 9]: 100%
- Control % after 5 days, II [5, 9]: 90%
- Control % after 5 days, III [5, 9]: 95%
- Control % after 5 days, MEAN [5, 9]: 95.00%
- Control % after 10 days, I [5, 9]: 100%
- Control % after 10 days, II [5, 9]: 100%
- Control % after 10 days, III [5, 9]: 100%
- Control % after 10 days, MEAN [5, 9]: 100.00%
- Control % after 15 days, I [5, 9]: 100%
- Control % after 15 days, II [5, 9]: 100%
- Control % after 15 days, III [5, 9]: 100%
- Control % after 15 days, MEAN [5, 9]: 100.00%
- Control % after 10 days, I (TABLE NO. 4) [5, 8]: 100%
- Control % after 10 days, II (TABLE NO. 4) [5, 8]: 100%
- Control % after 10 days, III (TABLE NO. 4) [5, 8]: 100%
- Control % after 10 days, MEAN (TABLE NO. 4) [5, 8]: 100.00%
- Control % after 10 days, I (TABLE NO. 4) [5, 9]: 100%
- Control % after 10 days, II (TABLE NO. 4) [5, 9]: 100%
- Control % after 10 days, III (TABLE NO. 4) [5, 9]: 100%
- Control % after 10 days, MEAN (TABLE NO. 4) [5, 9]: 100.00%
- Control % after 5 days, I [6, 8]: 60%
- Control % after 5 days, II [6, 8]: 50%
- Control % after 5 days, III [6, 8]: 50%
- Control % after 5 days, MEAN [6, 8]: 53.00%
- Control % after 10 days, I [6, 8]: 75%
- Control % after 10 days, II [6, 8]: 90%
- Control % after 10 days, III [6, 8]: 90%
- Control % after 10 days, MEAN [6, 8]: 85.00%
- Control % after 15 days, I [6, 8]: 85%
- Control % after 15 days, II [6, 8]: 90%
- Control % after 15 days, III [6, 8]: 90%
- Control % after 15 days, MEAN [6, 8]: 88.33%
- Control % after 25 days, I [6, 8]: 85%
- Control % after 25 days, II [6, 8]: 90%
- Control % after 25 days, III [6, 8]: 90%
- Control % after 25 days, MEAN [6, 8]: 88.33%
- Control %, 5 DAYS, data average by assessment date [6, 8]: 53.33 B %
- Control %, 10 DAYS, data average by assessment date [6, 8]: 85.00 BC %
- Control %, 15 DAYS, data average by assessment date [6, 8]: 88.33 B %
- Control %, 25 DAYS, data average by assessment date [6, 8]: 83.33 B %
- Control % after 5 days, I [6, 9]: 70%
- Control % after 5 days, II [6, 9]: 80%
- Control % after 5 days, III [6, 9]: 75%
- Control % after 5 days, MEAN [6, 9]: 75.00%
- Control % after 10 days, I [6, 9]: 100%
- Control % after 10 days, II [6, 9]: 100%
- Control % after 10 days, III [6, 9]: 100%
- Control % after 10 days, MEAN [6, 9]: 100.00%
- Control % after 15 days, I [6, 9]: 100%
- Control % after 15 days, II [6, 9]: 100%
- Control % after 15 days, III [6, 9]: 100%
- Control % after 15 days, MEAN [6, 9]: 100.00%
- Control % after 25 days, I [6, 9]: 100%
- Control % after 25 days, II [6, 9]: 100%
- Control % after 25 days, III [6, 9]: 100%
- Control % after 25 days, MEAN [6, 9]: 100.00%
- Control %, 5 DAYS, data average by assessment date [6, 9]: 75.00 A %
- Control %, 10 DAYS, data average by assessment date [6, 9]: 100.00 A %
- Control %, 15 DAYS, data average by assessment date [6, 9]: 100.00 A %
- Control %, 25 DAYS, data average by assessment date [6, 9]: 100.00 A %
- final control over Bermuda grass and nutgrass ([6]; higher dosage treatments: Glyphosate triazolamine salt 3,000 / Rondo 5,000 cm^2/ha): total control

Compound: O=C(O)CNCP(=O)(O)O [Glyphosate, N-(phosphonomethyl)-glycine]
- solubility in water (general statement) [7]: practically non-soluble in water

Compound: Nc1nc[nH]n1 [triazolamine, 1H-1,2,4-triazol-3-yl-amine]
- solubility in water (general statement) [7]: quite soluble
